Values after ≈ are worked out from the molar mass of the structure shown.

One experiment relates to P388. Briefly: Cytotoxicity against mouse P388 cells. The experiment is classed as functional, cell-based.
Another experiment deals with HeLa. Briefly: Cytotoxicity against human HeLa cells. The class given is functional, cell-based.
A further experiment relates to Amorphotheca resinae. Briefly: Antifungal activity against Cladosporium resinae at 15 ug/disk. The experiment is classed as functional. Particulars: read-out: IZ.
For a further experiment, the system named is Bacillus subtilis. Briefly: Antibacterial activity against Bacillus subtilis at 15 ug/disk. The experiment is classed as functional. The conditions noted are these: read-out: IZ.
The test system of experiment [1] is Trichophyton mentagrophytes. Briefly: Antifungal activity against Trichophyton mentagrophytes at 30 ug/disk. The experiment is classed as functional. Particulars: read-out: IZ.

In the case of `C/C1=C\[C@@H](C)C/C=C/[C@H]2[C@@H]3O[C@]3(C)[C@@H](C)[C@H]3[C@H](Cc4c[nH]c5ccccc45)NC(=O)[C@]32C(=O)/C=C/C(=O)[C@@H]1O` [CHAETOGLOBOSIN A], the 50% inhibitory concentration (IC50) (in general, the midpoint of a concentration-inhibition curve) with P388 is 1.94 µg/mL (≈ 3.67 µM); with HeLa, 3.2 µg/mL (≈ 6.05 µM). The zone of inhibition at 15 µg/disc in the experiment with Amorphotheca resinae worked out at 5 mm; with Bacillus subtilis it was 3 mm. In the experiment on HeLa, `C/C1=C\[C@@H](C)C/C=C/[C@H]2[C@@H]3O[C@]3(C)[C@@H](C)[C@H]3[C@H](Cc4c[nH]c5ccccc45)NC(=O)[C@]32C(=O)CCC(=O)C1=O` [CHAETOGLOBOSIN C] returned an IC50 of 3.2 µg/mL (≈ 6.05 µM). `CC1=C(C)[C@H]2[C@H](Cc3c[nH]c4ccccc34)NC(=O)[C@]23C(=O)CC[C@H](O)C(=O)/C(C)=C/[C@@H](C)C/C=C/[C@H]3[C@@H]1O` [CHAETOGLOBOSIN E] yielded a 50% inhibitory concentration (IC50) in the experiment with HeLa of 3.2 µg/mL (≈ 6.03 µM). As for `C/C1=C\[C@@H](C)C/C=C/[C@H]2[C@@H]3O[C@]3(C)[C@@H](C)[C@H]3[C@H](Cc4c[nH]c5ccccc45)NC(=O)[C@]32C(=O)CC[C@H](O)C1=O` [CHAETOGLOBOSIN F], half-maximal inhibition in the experiment with HeLa (IC50) was put at 3.2 µg/mL (≈ 6.03 µM). On to `C/C1=C\[C@@H](C)C/C=C/[C@H]2[C@H](O)[C@](C)(O)[C@@H](C)[C@H]3[C@H](Cc4c[nH]c5ccccc45)NC(=O)[C@]32C(=O)/C=C/C(=O)[C@@H]1O` [CHAETOGLOBOSIN Q], for which the IC50 with P388 is 2.19 µg/mL (≈ 4.01 µM). For `CC1=C(C)[C@H]2[C@H](Cc3c[nH]c4ccccc34)NC(=O)[C@]23C(=O)/C=C/C(=O)[C@H](O)/C(C)=C/[C@@H](C)C/C=C/[C@H]3[C@@H]1O` [CHEATOGLOBOSIN B], the figures for the IC50 in the experiment with P388 and with HeLa were 3.45 µg/mL (≈ 6.53 µM) and 3.2 µg/mL (≈ 6.05 µM), respectively. Also, in the experiment with Bacillus subtilis, the zone of inhibition at 15 µg/disc came to 1 mm. Regarding `C=C1[C@@H](C)[C@H]2[C@H](Cc3c[nH]c4ccccc34)NC(=O)[C@]23C(=O)/C=C/C(=O)[C@H](O)/C(C)=C/[C@@H](C)C/C=C/[C@H]3[C@@H]1O` [CHEATOGLOBOSIN D], the IC50 was found to be 4.92 µg/mL (≈ 9.31 µM) with P388 and 3.2 µg/mL (≈ 6.05 µM) with HeLa. Also, in the experiment with Bacillus subtilis, the zone of inhibition at 15 µg/disc came out at 3 mm. Take `CC1=C(C)[C@H]2[C@H](Cc3c[nH]c4ccccc34)NC(=O)[C@]23C(=O)CCC(=O)C(=O)/C(C)=C/[C@@H](C)C/C=C/[C@H]3[C@@H]1O` [CHEATOGLOBOSIN G]: in the experiment with HeLa, the IC50 came out at 3.2 µg/mL (≈ 6.05 µM). Turning to `CC1=C[C@@H]2/C=C/C[C@H](C)/C=C(\C)[C@@H](O)C(=O)/C=C/C(=O)[C@]23C(=O)N[C@@H](Cc2c[nH]c4ccccc24)[C@@H]3[C@@H]1C` [CHEATOGLOBOSIN J], the IC50 in the experiment with P388 is 2.47 µg/mL (≈ 4.82 µM); with HeLa it was 3.2 µg/mL (≈ 6.24 µM). Also, in the experiment with Bacillus subtilis, the zone of inhibition at 15 µg/disc was found to be 2 mm.

In the experiment with P388, `CC1=C[C@@H]2/C=C/C[C@H](C)/C=C(\C)[C@@H](O)C/C=C/C(=O)[C@]23C(=O)N[C@@H](Cc2c[nH]c4ccccc24)[C@@H]3[C@@H]1C` [CHEATOGLOBOSIN T] came in with an IC50 of 1.58 µg/mL (≈ 3.17 µM). In the experiment with P388, `CC1=C[C@@H]2/C=C/C[C@H](C)/C=C(\C)CC(=O)/C=C/C(=O)[C@]23C(=O)N[C@@H](Cc2c[nH]c4ccccc24)[C@@H]3[C@@H]1C` [PROCHEATOGLOBOSIN II] came in with a half-inhibitory concentration (IC50) of 3.99 µg/mL (≈ 8.03 µM). The zone of inhibition at 30 µg/disc in experiment [1] amounted to 2 mm.

The compound `CC1=C[C@@H]2/C=C/C[C@H](C)/C=C(\C)CC/C=C/C(=O)[C@]23C(=O)N[C@@H](Cc2c[nH]c4ccccc24)[C@@H]3[C@@H]1C` [PROCHEATOGLOBOSIN I] showed an IC50 in the experiment with P388 of 3.99 µg/mL (≈ 8.27 µM). For the same compound, in experiment [1], the zone of inhibition at 30 µg/disc was found to be 2 mm.
